Test results as given in PubChem BioAssay AID292 (DTP/NCI, 2004).
Several values for one entry are separate records, joined by “and”; a condition that tells them apart may be missing. Equal entries are not always repeated. Toxic doses and inconclusive results are not listed. The calls were made as follows: active = survival T/C of 150% or more; inactive = T/C below 125% in these data.

Test system: B6C3F1 mice, ip Sarcoma M5076, median survival T/C
Assay: NCI In Vivo Anticancer Drug Screen. Data for tumor model Sarcoma M5076 (intraperitoneal) in B6C3F1 mice
Settings: endpoint: median survival time, higher = longer survival
How it was run: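 Transplantable tumour in mice; compound-treated vs vehicle-treated groups. Read-out: survival. Value = treated/control ratio.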

[1] = dose: 25.0 mg/kg/injection, schedule: Q04DX004 (ip), vehicle: saline with Tween-80
[2] = dose: 50.0 mg/kg/injection, schedule: Q04DX004 (ip), vehicle: saline with Tween-80
[3] = dose: 100.0 mg/kg/injection, schedule: Q04DX004 (ip), vehicle: saline with Tween-80
[4] = dose: 200.0 mg/kg/injection, schedule: Q04DX004 (ip), vehicle: saline with Tween-80
[5] = dose: 400.0 mg/kg/injection, schedule: Q04DX004 (ip), vehicle: saline with Tween-80
[6] = dose: 800.0 mg/kg/injection, schedule: Q04DX004 (ip), vehicle: saline with Tween-80

Measured: T/C

CC[C@](O)(C(=O)O)c1cc2n(c(=O)c1CO)Cc1cc3ccccc3nc1-2
inactive: dose: 3.12 mg/kg/injection, schedule: Q04DX004 (ip), vehicle: saline 115 % of control | dose: 6.25 mg/kg/injection, schedule: Q04DX004 (ip), vehicle: saline 115 % of control and 123 % of control | dose: 12.5 mg/kg/injection, schedule: Q04DX004 (ip), vehicle: saline 119 % of control | dose: 25.0 mg/kg/injection, schedule: Q04DX004 (ip), vehicle: saline 123 % of control | dose: 50.0 mg/kg/injection, schedule: Q04DX004 (ip), vehicle: saline 114 % of control

O=C1CC2(C(=O)N1CN1CCOCC1)c1ccccc1-c1ccccc12
inactive: dose: 200.0 mg/kg/injection, schedule: Q04DX004 (ip), vehicle: Klucel (hydroxypropylcellulose) (HPC) 113 % of control | dose: 400.0 mg/kg/injection, schedule: Q04DX004 (ip), vehicle: Klucel (hydroxypropylcellulose) (HPC) 121 % of control

COc1cc2oc3c(C)c(=O)cc4oc(-c5ccccc5)cc(c2c2c1CCC(c1ccccc1)O2)c43 (configuration not stated)
inactive: dose: 1.75 mg/kg/injection, schedule: Q04DX004 (ip), vehicle: Klucel (hydroxypropylcellulose) (HPC) 109 % of control | dose: 3.5 mg/kg/injection, schedule: Q04DX004 (ip), vehicle: Klucel (hydroxypropylcellulose) (HPC) 102 % of control | dose: 7.0 mg/kg/injection, schedule: Q04DX004 (ip), vehicle: Klucel (hydroxypropylcellulose) (HPC) 102 % of control | dose: 12.5 mg/kg/injection, schedule: Q04DX004 (ip), vehicle: saline with Tween-80 98 % of control | dose: 14.0 mg/kg/injection, schedule: Q04DX004 (ip), vehicle: Klucel (hydroxypropylcellulose) (HPC) 109 % of control | [1] 98 % of control | dose: 28.0 mg/kg/injection, schedule: Q04DX004 (ip), vehicle: Klucel (hydroxypropylcellulose) (HPC) 97 % of control | [2] 99 % of control and 100 % of control | [3] 94 % of control and 96 % of control | [4] 96 % of control and 103 % of control | [5] 87 % of control | [6] 110 % of control

Cc1cn(C2CC(F)C(CO)O2)c(=O)[nH]c1=O (configuration not stated)
inactive: dose: 7.5 mg/kg/injection, schedule: Q04DX004 (ip), vehicle: suspension in saline 111 % of control | dose: 150.0 mg/kg/injection, schedule: Q04DX004 (ip), vehicle: suspension in saline 101 % of control | dose: 300.0 mg/kg/injection, schedule: Q04DX004 (ip), vehicle: suspension in saline 111 % of control | dose: 600.0 mg/kg/injection, schedule: Q04DX004 (ip), vehicle: suspension in saline 117 % of control

O=C1NC2(CN3CCC2CC3)C(=O)N1CN(Cc1ccccc1)c1ccccc1 (configuration not stated)
inactive: [2] 97 % of control | [3] 102 % of control | [4] 93 % of control | [5] 87 % of control | [6] 90 % of control

O=c1ncccn1[C@@H]1O[C@H](CO)[C@H](O)C1O (some centres not stated)
inactive: dose: 25.0 mg/kg/injection, schedule: Q01DX009 (ip), vehicle: saline 99 % of control | dose: 50.0 mg/kg/injection, schedule: Q01DX009 (ip), vehicle: saline 103 % of control | dose: 100.0 mg/kg/injection, schedule: Q01DX009 (ip), vehicle: saline 104 % of control | dose: 125.0 mg/kg/injection, schedule: Q04DX004 (ip), vehicle: saline 92 % of control | dose: 200.0 mg/kg/injection, schedule: Q01DX009 (ip), vehicle: saline 110 % of control | dose: 250.0 mg/kg/injection, schedule: Q04DX004 (ip), vehicle: saline 94 % of control | dose: 400.0 mg/kg/injection, schedule: Q01DX009 (ip), vehicle: saline 97 % of control | dose: 500.0 mg/kg/injection, schedule: Q04DX004 (ip), vehicle: saline 89 % of control | dose: 1000.0 mg/kg/injection, schedule: Q04DX004 (ip), vehicle: saline 92 % of control

COc1oc(C2C/C(=C/C(C)=C/C(C)=C/C(C)=C/c3ccc([N+](=O)[O-])cc3)CO2)c(C)c(=O)c1C (configuration not stated)
inactive: dose: 1.0 mg/kg/injection, schedule: Q04DX004 (ip), vehicle: saline 100 % of control | dose: 2.0 mg/kg/injection, schedule: Q04DX004 (ip), vehicle: saline 102 % of control and 104 % of control | dose: 4.0 mg/kg/injection, schedule: Q04DX004 (ip), vehicle: saline 102 % of control and 103 % of control | dose: 8.0 mg/kg/injection, schedule: Q04DX004 (ip), vehicle: saline 106 % of control and 115 % of control

CC1(C)Nc2cc3c(cc2-n2cccc21)oc1ccccc13
inactive: dose: 150.0 mg/kg/injection, schedule: Q04DX004 (ip), vehicle: DMSO 101 % of control | dose: 300.0 mg/kg/injection, schedule: Q04DX004 (ip), vehicle: DMSO 100 % of control | dose: 600.0 mg/kg/injection, schedule: Q04DX004 (ip), vehicle: DMSO 101 % of control | dose: 1200.0 mg/kg/injection, schedule: Q04DX004 (ip), vehicle: DMSO 97 % of control

CC(C)CCC(=O)c1ccoc1
inactive: dose: 0.25 mg/kg/injection, schedule: Q03HX012 (ip), vehicle: saline with Tween-80 96 % of control | dose: 0.5 mg/kg/injection, schedule: Q03HX012 (ip), vehicle: saline with Tween-80 96 % of control | dose: 1.0 mg/kg/injection, schedule: Q03HX012 (ip), vehicle: saline with Tween-80 90 % of control | dose: 2.0 mg/kg/injection, schedule: Q03HX012 (ip), vehicle: saline with Tween-80 99 % of control

c1ccc(-c2nc3cc4c(cc3n3cccc23)oc2ccccc24)cc1
inactive: [1] 90 % of control | [2] 101 % of control | [5] 91 % of control

Cc1c(O)c(O)c(C)c(CCN)c1O
inactive: dose: 31.0 mg/kg/injection, schedule: Q04DX004 (ip), vehicle: saline with Tween-80 100 % of control | dose: 62.0 mg/kg/injection, schedule: Q04DX004 (ip), vehicle: saline with Tween-80 104 % of control | dose: 112.0 mg/kg/injection, schedule: Q04DX004 (ip), vehicle: saline with Tween-80 94 % of control

C[CH2][Sn]([Cl])([CH2]C)[c]1cc[c]([Sn]([Cl])([CH2]C)[CH2]C)cc1
inactive: dose: 0.06 mg/kg/injection, schedule: Q04DX004 (ip), vehicle: Klucel (hydroxypropylcellulose) (HPC) 102 % of control | dose: 0.12 mg/kg/injection, schedule: Q04DX004 (ip), vehicle: Klucel (hydroxypropylcellulose) (HPC) 89 % of control | dose: 0.25 mg/kg/injection, schedule: Q04DX004 (ip), vehicle: Klucel (hydroxypropylcellulose) (HPC) 91 % of control | dose: 0.5 mg/kg/injection, schedule: Q04DX004 (ip), vehicle: Klucel (hydroxypropylcellulose) (HPC) 101 % of control | dose: 90.0 micrograms/kg/injection, schedule: Q04DX004 (ip), vehicle: Klucel (hydroxypropylcellulose) (HPC) 106 % of control | dose: 150.0 micrograms/kg/injection, schedule: Q04DX004 (ip), vehicle: Klucel (hydroxypropylcellulose) (HPC) 96 % of control | dose: 250.0 micrograms/kg/injection, schedule: Q04DX004 (ip), vehicle: Klucel (hydroxypropylcellulose) (HPC) 100 % of control | dose: 416.7 micrograms/kg/injection, schedule: Q04DX004 (ip), vehicle: Klucel (hydroxypropylcellulose) (HPC) 98 % of control | dose: 694.5 micrograms/kg/injection, schedule: Q04DX004 (ip), vehicle: Klucel (hydroxypropylcellulose) (HPC) 107 % of control

O=C(CCl)N1CCN(C/C=C/c2ccccc2)CC1
inactive: dose: 37.5 mg/kg/injection, schedule: Q04DX004 (ip), vehicle: saline 106 % of control | dose: 75.0 mg/kg/injection, schedule: Q04DX004 (ip), vehicle: saline 96 % of control | dose: 150.0 mg/kg/injection, schedule: Q04DX004 (ip), vehicle: saline 96 % of control
